Test results from patent US20070099259A1, “ELECTROCHEMICAL ASSAY FOR THE IDENTIFICATION OF MICROORGANISMS” (RAPID LABORATORY MICROSYSTEMS INC., priority 2003, published 2007).
Read-outs that look alike come from different tables or passages of the source.

Key:
Assay in all cases: Relative respiratory activity with 22 effectors (Example 3)
P. vulgaris ATCC6380 = type: cell-based, Proteus vulgaris; details: for activity at 20000 µM: effector 20 mM
From the text: (§1) In this example, each microorganism is subjected to 22 different effector compounds in addition to control measurements. […] For each microorganism, duplicate measurements were made of 22 different effector compounds. In addition, duplicate measurements were made a control test containing no effector compound. One additional measurement was made of a control solution containing the microorganism with ferricyanide but without effector or DCIP.
(§2) In this example, each normalized data set containing duplicate measurements for each of 22 effector compounds is referenced to the duplicate internal controls to allow batch-to-batch comparison. The obtained signals of charge per unit electrode area for the duplicate control measurements are averaged and set at 100% respiratory cycle activity. […] The data set used to generate pattern recognition plots consists of 5 replicate batches (each batch containing duplicate measurements for each of 22 effector compounds) for each cell culture (10 strains). This is used to generate a 50 (columns)×22 (rows) matrix. The matrix is imported into MATLAB (Version 6.0). Factor analysis is performed using the MATLAB Chemometric Toolbox (Version 2.3) and involves the generation of reduced eigenvectors to determine the optimal number of factors, examination of the resulting residuals plots for randomness, and the generation of scores for the first four principle components.

S. cerevisiae = type: cell-based, Saccharomyces cerevisiae; details: for activity at 10000 µM: read-out: relative %-respiratory activity; for activity at 20000 µM: effector 20 mM
From the text: as §1, §2

P. aeruginosa = type: cell-based, Pseudomonas aeruginosa; details: for activity at 10000 µM: read-out: relative %-respiratory activity; for activity at 20000 µM: effector 20 mM
From the text: as §1, §2

S. aureus ATCC6538P = type: cell-based, Staphylococcus aureus; details: for activity at 10000 µM: read-out: relative %-respiratory activity; for activity at 20000 µM: effector 20 mM
From the text: as §1, §2

E. coli Neotype = type: cell-based; details: for activity at 10000 µM: read-out: relative %-respiratory activity; for activity at 20000 µM: effector 20 mM
From the text: as §1, §2

E. coli HB101 = type: cell-based; details: for activity at 20000 µM: effector 20 mM
From the text: as §1, §2

E. coli JM105 = type: cell-based; details: for activity at 20000 µM: effector 20 mM
From the text: as §1, §2

E. faecalis = type: cell-based, Enterococcus faecalis; details: for activity at 10000 µM: read-out: relative %-respiratory activity; for activity at 20000 µM: effector 20 mM
From the text: as §1, §2

E. aerogenes ATCC13048e = type: cell-based, Enterobacter aerogenes; details: for activity at 10000 µM: read-out: relative %-respiratory activity; for activity at 20000 µM: effector 20 mM
From the text: as §1, §2

E. coli B = type: cell-based; details: for activity at 20000 µM: effector 20 mM; for activity at 10000 µM: read-out: relative %-respiratory activity
From the text: as §1, §2

[1] = Proteus vulgaris, ATCC6380, 5 μM DCIP, no effector = 100%, n = 20
[2] = Saccharomyces cerevisiae, 5 μM DCIP, no effector = 100%, n = 10
[3] = Pseudomonas aeruginosa, 5 μM DCIP, no effector = 100%, n = 18
[4] = Staphylococcus aureus, ATCC6538P, 5 μM DCIP, no effector = 100%, n = 20
[5] = Escherichia coli, 5 μM DCIP, no effector = 100%, n = 26
[6] = Escherichia coli, HB101, 5 μM DCIP, no effector = 100%, n = 18
[7] = Escherichia coli, JM105, 5 μM DCIP, no effector = 100%, n = 10
[8] = Escherichia coli, 5 μM DCIP, no effector = 100%, n = 10
[9] = Enterococcus faecalis, 5 μM DCIP, no effector = 100%, n = 20
[10] = Klebsiella aerogenes, ATCC13048E, 5 μM DCIP, no effector = 100%, n = 26
[11] = Proteus vulgaris, ATCC6380, read-out: relative %-respiratory activity
[12] = Staphylococcus aureus, ATCC6538P
[13] = Escherichia coli, HB101, read-out: relative %-respiratory activity
[14] = Escherichia coli, JM105, read-out: relative %-respiratory activity
[15] = Klebsiella aerogenes, ATCC13048E
[16] = effector 10 mM, 5 μM DCIP, no effector = 100%, n = 20
[17] = effector 10 mM, 5 μM DCIP, no effector = 100%, n = 10
[18] = effector 10 mM, 5 μM DCIP, no effector = 100%, n = 18
[19] = effector 10 mM, 5 μM DCIP, no effector = 100%, n = 26

Structure (SMILES)	activity at 20000 µM (P. vulgaris ATCC6380; [1]) [%]	activity at 20000 µM (S. cerevisiae; [2]) [%]	activity at 20000 µM (P. aeruginosa; [3]) [%]	activity at 20000 µM (S. aureus ATCC6538P; [4]) [%]	activity at 20000 µM (E. coli Neotype; [5]) [%]	activity at 20000 µM (E. coli HB101; [6]) [%]	activity at 20000 µM (E. coli JM105; [7]) [%]	activity at 20000 µM (E. coli B; [8]) [%]	activity at 20000 µM (E. faecalis; [9]) [%]	activity at 20000 µM (E. aerogenes ATCC13048e; [10]) [%]	also measured
O=C(O)CC(=O)O [Malonic acid]											activity at 10000 µM (P. vulgaris ATCC6380; Proteus vulgaris, ATCC6380, effector 10 mM, 5 μM DCIP, no effector = 100%, n = 20, read-out: relative %-respiratory activity): 125%; activity at 10000 µM (S. cerevisiae; Saccharomyces cerevisiae, effector 10 mM, 5 μM DCIP, no effector = 100%, n = 10): 110%; activity at 10000 µM (P. aeruginosa; Pseudomonas aeruginosa, effector 10 mM, 5 μM DCIP, no effector = 100%, n = 18): 125%; activity at 10000 µM (S. aureus ATCC6538P; Staphylococcus aureus, ATCC6538P, effector 10 mM, 5 μM DCIP, no effector = 100%, n = 20): 117%; activity at 10000 µM (E. coli Neotype; Escherichia coli, effector 10 mM, 5 μM DCIP, no effector = 100%, n = 26): 141%; activity at 10000 µM (E. coli HB101; Escherichia coli, HB101, effector 10 mM, 5 μM DCIP, no effector = 100%, n = 18, read-out: relative %-respiratory activity): 124%; activity at 10000 µM (E. coli JM105; Escherichia coli, JM105, effector 10 mM, 5 μM DCIP, no effector = 100%, n = 10, read-out: relative %-respiratory activity): 160%; activity at 10000 µM (E. faecalis; Enterococcus faecalis, effector 10 mM, 5 μM DCIP, no effector = 100%, n = 20): 146%; activity at 10000 µM (E. aerogenes ATCC13048e; Klebsiella aerogenes, ATCC13048E, effector 10 mM, 5 μM DCIP, no effector = 100%, n = 26): 156%
O=C[C@H](O)[C@@H](O)[C@@H](O)[C@H](O)CO [D-galactose]	341	143	130	195	155	153	173	165	200	334	
OC[C@H]1O[C@@](CO)(O[C@H]2O[C@H](CO)[C@@H](O)[C@H](O)[C@H]2O)[C@@H](O)[C@@H]1O [Sucrose]	164	161	117	290	122	110	121	124	465	188	
O=CO [Formic acid]											activity at 10000 µM (P. vulgaris ATCC6380; [11]): 222%; activity at 10000 µM (S. cerevisiae; Saccharomyces cerevisiae): 132%; activity at 10000 µM (P. aeruginosa; Pseudomonas aeruginosa): 120%; activity at 10000 µM (S. aureus ATCC6538P; [12]): 298%; activity at 10000 µM (E. coli Neotype; Escherichia coli): 114%; activity at 10000 µM (E. coli HB101; [13]): 163%; activity at 10000 µM (E. coli JM105; [14]): 136%; activity at 10000 µM (E. coli B; Escherichia coli): 132%; activity at 10000 µM (E. faecalis; Enterococcus faecalis): 157%; activity at 10000 µM (E. aerogenes ATCC13048e; [15]): 124%
O=C(O)CCC(=O)C(=O)O [Alpha-ketoglutarate]											relative %-respiratory activity (P. vulgaris ATCC6380; [16]): 201%; relative %-respiratory activity (S. cerevisiae; [17]): 124%; relative %-respiratory activity (P. aeruginosa; [18]): 97%; relative %-respiratory activity (S. aureus ATCC6538P; [16]): 115%; relative %-respiratory activity (E. coli Neotype; [19]): 100%; relative %-respiratory activity (E. coli HB101; [18]): 116%; relative %-respiratory activity (E. coli JM105; [17]): 142%; relative %-respiratory activity (E. coli B; [17]): 130%; relative %-respiratory activity (E. faecalis; [16]): 109%; relative %-respiratory activity (E. aerogenes ATCC13048e; [19]): 102%
O=C(O)CC(O)(CC(=O)O)C(=O)O [Citric acid]	142	103	87	83	158	137	113	161	117	163	
NCCCC[C@H](N)C(=O)O [L-lysine]											activity at 10000 µM (P. vulgaris ATCC6380; [11]): 219%; activity at 10000 µM (S. cerevisiae; Saccharomyces cerevisiae): 240%; activity at 10000 µM (P. aeruginosa; Pseudomonas aeruginosa): 186%; activity at 10000 µM (S. aureus ATCC6538P; [12]): 159%; activity at 10000 µM (E. coli Neotype; Escherichia coli): 101%; activity at 10000 µM (E. coli HB101; [13]): 125%; activity at 10000 µM (E. coli JM105; [14]): 118%; activity at 10000 µM (E. coli B; Escherichia coli): 100%; activity at 10000 µM (E. faecalis; Enterococcus faecalis): 243%; activity at 10000 µM (E. aerogenes ATCC13048e; [15]): 125%
C[C@H](O)[C@H](O)[C@@H](O)[C@@H](O)C=O [L-rhamnose]	145	124	94	101	105	103	116	119	105	110	
O=C[C@@H](O)[C@H](O)[C@H](O)CO [D-arabinose]	150	143	113	115	103	107	137	118	139	106	
O=C[C@H](O)[C@@H](O)[C@H](O)CO [D-xylose]	178	116	113	128	110	110	134	102	128	149	
OC[C@H]1O[C@@H](O[C@H]2[C@H](O)[C@@H](O)C(O)O[C@@H]2CO)[C@H](O)[C@@H](O)[C@H]1O (stereo partly drawn) [D-lactose]	162	126	108	138	150	192	115	164	123	268	
OC[C@@H](O)[C@@H](O)[C@H](O)[C@@H](O)CO [D-sorbitol]											activity at 30000 µM (P. vulgaris ATCC6380; Proteus vulgaris, ATCC6380, effector 30 mM, 5 μM DCIP, no effector = 100%, n = 20): 186%; activity at 30000 µM (S. cerevisiae; Saccharomyces cerevisiae, effector 30 mM, 5 μM DCIP, no effector = 100%, n = 10): 113%; activity at 30000 µM (P. aeruginosa; Pseudomonas aeruginosa, effector 30 mM, 5 μM DCIP, no effector = 100%, n = 18): 104%; activity at 30000 µM (S. aureus ATCC6538P; Staphylococcus aureus, ATCC6538P, effector 30 mM, 5 μM DCIP, no effector = 100%, n = 20): 167%; activity at 30000 µM (E. coli Neotype; Escherichia coli, effector 30 mM, 5 μM DCIP, no effector = 100%, n = 26): 111%; activity at 30000 µM (E. coli HB101; Escherichia coli, HB101, effector 30 mM, 5 μM DCIP, no effector = 100%, n = 18): 124%; activity at 30000 µM (E. coli JM105; Escherichia coli, JM105, effector 30 mM, 5 μM DCIP, no effector = 100%, n = 10): 168%; activity at 30000 µM (E. coli B; Escherichia coli, effector 30 mM, 5 μM DCIP, no effector = 100%, n = 10): 136%; activity at 30000 µM (E. faecalis; Enterococcus faecalis, effector 30 mM, 5 μM DCIP, no effector = 100%, n = 20): 179%; activity at 30000 µM (E. aerogenes ATCC13048e; Klebsiella aerogenes, ATCC13048E, effector 30 mM, 5 μM DCIP, no effector = 100%, n = 26): 260%
O=P(O)(O)OC(CO)CO [Beta-glycerophosphate]											relative %-respiratory activity (P. vulgaris ATCC6380; [16]): 136%; relative %-respiratory activity (S. cerevisiae; [17]): 105%; relative %-respiratory activity (P. aeruginosa; [18]): 114%; relative %-respiratory activity (S. aureus ATCC6538P; [16]): 114%; relative %-respiratory activity (E. coli Neotype; [19]): 108%; relative %-respiratory activity (E. coli HB101; [18]): 110%; relative %-respiratory activity (E. coli JM105; [17]): 121%; relative %-respiratory activity (E. faecalis; [16]): 120%; relative %-respiratory activity (E. aerogenes ATCC13048e; [19]): 131%
O=C(CO)[C@@H](O)[C@H](O)[C@H](O)CO [D-fructose]	183	152	136	289	125	202	202	147	463	275	
